Laboratory results reported in PMC11544713, “The Application of Untargeted Metabolomic Approaches for the Search of Common Bioavailable Metabolites in Human Plasma Samples from Lippia citriodora and Olea europaea Extracts” (Journal of Agricultural and Food Chemistry, 2024).

Test: Acute intervention: nutrikinetics of plasma metabolites after ingestion of L. citriodora extract (untargeted HPLC-ESI-QTOF-MS)
Description: A total of 25 healthy individuals participated, with an average age of 27 ± 9 years and a mean body mass index (BMI) of 23 ± 3 kg/m^2. None of the participants were taking any medications or nutritional supplements nor did they have any chronic diseases or gastrointestinal issues. The sample size was established based on findings from previous bioavailability research.[14] All participants provided informed consent before participating in the study.
The intervention study was carried out at Miguel Hernández University. Following an overnight fast, the volunteers were categorized into the subsequent groups: a subgroup to evaluate the LC leaf extract (n = 8), another for the OE leaf extract (n = 8), and the placebo subgroup (n = 9). This was a double-blind study, in which sample collection and treatment were carried out uniformly across all three subgroups.
Water was provided ad libitum. Prior to the ingestion of the capsule, a nurse inserted a cannula into the ulnar vein of each volunteer’s nondominant arm, and blood samples were drawn into EDTA-coated tubes at baseline (t = 0). Blood samples were then collected at 0.5, 1, 2, 4, 6, 8, and 10 h after the consumption of the 500 mg capsule. Plasma was separated through centrifugation (10 min at 3000 rpm and 4 °C) and stored at −80 °C until further analysis.
Plasma samples were initially treated using a mixture of methanol and ethanol (50:50; v:v) to remove proteins, following previously reported protocols.[19] During the sample treatment, pooled quality controls (pooled-QC) were prepared by combining equal aliquots from each sample. These QC samples were processed by using the same protocols as the experimental biological samples.
A reversed-phase analytical C18 column (Agilent Zorbax Eclipse Plus, 1.8 μm, 4.6 × 150 mm^2) with a protective cartridge with the same packing was used. MS data were acquired in negative ionization mode, operating in full scan across a mass-to-charge ratio (m/z) range of 50–1700. The analytical method used was adapted from that described by Villegas-Aguilar et al.[19]
Metabolite nutrikinetics were studied using PKSolver, an add-in program for pharmacokinetic data analysis in Microsoft Excel. The time to reach the maximum concentration (observed Tmax) was calculated for each significant metabolite. As an untargeted metabolomic approach was used to detect the circulating metabolites, these were not quantified. Therefore, the maximum concentration (Cmax) and area under the curve (AUC) parameters were calculated in a relative way by using the deconvoluted chromatographic areas. […] Statistical differences were determined by unpaired t tests. All p values less than 0.05 were considered statistically significant.

[1] = 0.5 h after L. citriodora extract
[2] = 1 h after L. citriodora extract
[3] = 2 h after L. citriodora extract
[4] = 4 h after L. citriodora extract
[5] = 6 h after L. citriodora extract
[6] = 8 h after L. citriodora extract
[7] = 10 h after L. citriodora extract
[8] = human plasma, 500 mg capsule of L. citriodora (LC) extract, oral, mean ± SD

Compound	mean chromatographic area in plasma, T0.5 [1]	mean chromatographic area in plasma, T1 [2]	mean chromatographic area in plasma, T2 [3]	mean chromatographic area in plasma, T4 [4]	mean chromatographic area in plasma, T6 [5]	mean chromatographic area in plasma, T8 [6]	mean chromatographic area in plasma, T10 [7]	AUC: area under the zero-moment curve [8]	Cmax: relative maximum plasma level [8]	observed Tmax: time required to reach Cmax [8] [h]	AUC: area under the zero-moment curve (human, in vivo, po, 500 mg)	Cmax: relative maximum plasma level (human, in vivo, po, 500 mg)	observed Tmax: time required to reach Cmax (human, in vivo, po, 500 mg) [h]	mean chromatographic area in plasma, T0.5 (in vivo)	mean chromatographic area in plasma, T1 (in vivo)	mean chromatographic area in plasma, T2 (in vivo)	mean chromatographic area in plasma, T4 (in vivo)	mean chromatographic area in plasma, T6 (in vivo)	mean chromatographic area in plasma, T8 (in vivo)	mean chromatographic area in plasma, T10 (in vivo)	other results
CC(O)/C=C\C/C=C\C/C=C\CCCCCCCC(=O)O (stereo not drawn) [17-hydroxylinolenic acid]	81	428	445	184	31	12	20	1621 ± 1914 relative chromatographic area/h	335 ± 306 relative chromatographic area	6 ± 4	–	–	–	–	–	–	–	–	–	–	–
COc1cc(CCCO)ccc1OC1OC(CO)C(O)C(O)C1O (single isomer, unassigned; isomer 1) [dihydroconiferin isomer 1, dihydroconiferin]	44	137	0	0	0	0	0	126 ± 28 relative chromatographic area/h	139 ± 19 relative chromatographic area	0.9 ± 0.2	–	–	–	–	–	–	–	–	–	–	–
gardoside [gardoside isomer 1]	–	–	–	–	–	–	–	–	–	–	608 ± 375 relative chromatographic area/h	211 ± 72 relative chromatographic area	2 ± 0	0	85	211	86	27	0	0	–
O=C(O)C=Cc1ccc(OS(=O)(=O)O)c(O)c1 (single isomer, unassigned; isomer 1) [caffeic acid 4-sulfate isomer 1, caffeic acid 4-sulfate]	–	–	–	–	–	–	–	–	–	–	1157 ± 757 relative chromatographic area/h	325 ± 147 relative chromatographic area	3 ± 1	21	89	280	177	86	67	0	–
COc1cc(/C=C/C(=O)O)ccc1O[C@@H]1O[C@H](C(=O)O)[C@@H](O)[C@H](O)[C@H]1O [ferulic acid 4-O-glucuronide]	0	0	66	163	217	177	89	1304 ± 1975 relative chromatographic area/h	282 ± 358 relative chromatographic area	5 ± 2	–	–	–	–	–	–	–	–	–	–	–
COc1cc(C(=O)O)ccc1OS(=O)(=O)O [vanillic acid 4-O-sulfate isomer 2, vanillic acid 4-O-sulfate]	18	102	43	0	0	0	0	152 ± 118 relative chromatographic area/h	119 ± 41 relative chromatographic area	1.2 ± 0.4	–	–	–	–	–	–	–	–	–	–	–
CC1=CC(=O)CC(C)(C)C1(O)/C=C/C(C)=C/COC1OC(CO)C(O)C(O)C1O (single isomer, unassigned; isomer 1) [abscisic alcohol 11-glucoside isomer 1, abscisic alcohol 11-glucoside]	50	188	61	0	0	0	0	259 ± 134 relative chromatographic area/h	202 ± 82 relative chromatographic area	1.2 ± 0.4	–	–	–	–	–	–	–	–	–	–	–
pteroside Z [pteroside Z isomer 1]	–	–	–	–	–	–	–	–	–	–	123 ± 53 relative chromatographic area/h	120 ± 22 relative chromatographic area	1.2 ± 0.4	0	105	28	0	0	0	0	–
C=C(C)[C@@H]1[C@H]2OC(=O)[C@@H]1[C@]1(O)C[C@H]3O[C@]34C(=O)O[C@H]2[C@]14C [picrotoxinin]	32	102	91	0	0	0	0	231 ± 102 relative chromatographic area/h	136 ± 44 relative chromatographic area	1.3 ± 0.5	–	–	–	–	–	–	–	–	–	–	–
gardoside [gardoside isomer 2]	–	–	–	–	–	–	–	–	–	–	2015 ± 547 relative chromatographic area/h	508 ± 110 relative chromatographic area	2.3 ± 0.7	123	328	480	284	151	51	15	–
O=C(O)CCCCCCCCC(=O)O [sebacic acid Isomer 2, sebacic acid]	–	–	–	–	–	–	–	–	–	–	–	–	–	15	86	86	15	–	–	–	–
C[C@@H]1O[C@@H](O[C@@H]2[C@@H](O)[C@H](OCCc3ccc(O)c(O)c3)O[C@H](CO)[C@H]2OC(=O)/C=C/c2ccc(O)c(O)c2)[C@H](O)[C@H](O)[C@H]1O [verbascoside]	–	–	–	–	–	–	–	–	–	–	–	–	–	–	–	–	–	–	–	–	detection in plasma samples (native form or phase II metabolites) (in vivo): has not been detected in plasma samples
